Experimental data from patent US9199959B2, “HIV replication inhibitor” (Shionogi & Co., Ltd., priority 2011, dated 2015).

Key:
CYP1A2 = molecular target: T1, CYP1A2 (Homo sapiens, UniProt P05177); assay: CYP inhibition assay, 7-ethoxyresorufin O-deethylation; format: in vitro ADME; details: pooled human liver microsomes, probe 7-ethoxyresorufin (O-deethylation), 0.5 μmol/L, pooled human hepatic microsome
T1 construct: enzyme, pooled human hepatic microsome 0.2 mg protein/mL; from tissue; host or cells: pooled human liver microsomes
T1 sequence (P05177 1-516): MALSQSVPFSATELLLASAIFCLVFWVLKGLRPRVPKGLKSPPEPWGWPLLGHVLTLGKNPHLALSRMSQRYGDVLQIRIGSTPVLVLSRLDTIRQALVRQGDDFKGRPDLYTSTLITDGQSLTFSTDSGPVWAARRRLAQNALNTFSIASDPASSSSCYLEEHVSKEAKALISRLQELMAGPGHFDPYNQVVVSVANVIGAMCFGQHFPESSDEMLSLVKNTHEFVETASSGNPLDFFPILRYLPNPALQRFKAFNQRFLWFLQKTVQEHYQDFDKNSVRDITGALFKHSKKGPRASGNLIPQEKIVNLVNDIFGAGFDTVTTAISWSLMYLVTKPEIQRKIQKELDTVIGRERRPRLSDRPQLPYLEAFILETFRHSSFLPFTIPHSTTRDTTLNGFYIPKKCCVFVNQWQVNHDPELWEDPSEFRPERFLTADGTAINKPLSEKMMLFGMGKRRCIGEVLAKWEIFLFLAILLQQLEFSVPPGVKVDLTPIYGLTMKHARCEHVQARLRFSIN
Protocol: (§1) Using commercially available pooled human hepatic microsome, and employing, as markers, 7-ethoxyresorufin O-deethylation (CYP1A2), tolbutamide methyl-hydroxylation (CYP2C9), mephenytoin 4′-hydroxylation (CYP2C19), dextromethorphan O-demethylation (CYP2D6), and terfenedine hydroxylation (CYP3A4) as typical substrate metabolism reactions of human main five CYP enzyme forms (CYP1A2, 2C9, 2C19, 2D6, 3A4), an inhibitory degree of each metabolite production amount by a test compound was assessed.
(§2) The reaction conditions were as follows: substrate, 0.5 μmol/L ethoxyresorufin (CYP1A2), 100 μmol/L tolbutamide (CYP2C9), 50 μmol/L S-mephenytoin (CYP2C19), 5 μmol/L dextromethorphan (CYP2D6), 1 μmol/L terfenedine (CYP3A4); reaction time, 15 minutes; reaction temperature, 37° C.; enzyme, pooled human hepatic microsome 0.2 mg protein/mL; test drug concentration, 1, 5, 10, 20 μmol/L (four points).
(§3) Each five kinds of substrates, human hepatic microsome, and a test drug in 50 mmol/L Hepes buffer as a reaction solution was added to a 96-well plate as the composition as described above, NADPH, as a cofactor was added to initiate metabolism reactions as markers and, after the incubation at 37° C. for 15 minutes, a methanol/acetonitrile=1/1 (v/v) solution was added to stop the reaction. After the centrifugation at 3000 rpm for 15 minutes, resorufin (CYP1A2 metabolite) in the supernatant was quantified by a fluorescent multilabel counter and tolbutamide hydroxide (CYP2C9 metabolite), mephenytoin 4′ hydroxide (CYP2C19 metabolite), dextrorphan (CYP2D6 metabolite), and terfenadine alcohol (CYP3A4 metabolite) were quantified by LC/MS/MS.
(§4) A reaction system containing only DMSO which is a solvent for dissolving a drug was adopted as a control (100%), and the remaining activity (%) was calculated, then IC50 was calculated by reverse presumption with a logistic model using a concentration and an inhibition rate.

CYP2C19 = molecular target: T2, CYP2C19 (Homo sapiens, UniProt P33261); assay: CYP inhibition assay, mephenytoin 4'-hydroxylation; format: in vitro ADME; details: pooled human liver microsomes, probe S-mephenytoin (4'-hydroxylation), 50 μmol/L, pooled human hepatic microsome
T2 construct: enzyme, pooled human hepatic microsome 0.2 mg protein/mL; from tissue; host or cells: pooled human liver microsomes
T2 sequence (P33261 whole entry): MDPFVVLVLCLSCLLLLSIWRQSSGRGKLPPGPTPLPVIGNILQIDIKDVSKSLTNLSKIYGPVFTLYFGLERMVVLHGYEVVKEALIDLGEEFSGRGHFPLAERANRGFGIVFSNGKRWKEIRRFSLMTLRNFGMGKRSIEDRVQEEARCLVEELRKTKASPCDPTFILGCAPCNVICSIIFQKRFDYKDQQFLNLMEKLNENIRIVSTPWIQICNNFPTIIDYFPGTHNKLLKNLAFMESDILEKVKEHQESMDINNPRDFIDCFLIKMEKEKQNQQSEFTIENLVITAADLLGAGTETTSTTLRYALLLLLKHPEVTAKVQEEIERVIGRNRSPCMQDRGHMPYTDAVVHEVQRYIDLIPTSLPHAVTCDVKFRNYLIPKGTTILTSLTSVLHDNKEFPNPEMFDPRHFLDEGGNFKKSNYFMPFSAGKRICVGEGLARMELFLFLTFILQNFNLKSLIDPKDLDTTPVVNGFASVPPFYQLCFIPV
Protocol: as §1, §2, §3, §4

CYP3A4 = molecular target: T3, CYP3A4 (Homo sapiens, UniProt P08684); assay: CYP inhibition assay, terfenedine hydroxylation; format: in vitro ADME; details: pooled human liver microsomes, probe terfenedine (hydroxylation), 1 μmol/L, pooled human hepatic microsome
T3 construct: enzyme, pooled human hepatic microsome 0.2 mg protein/mL; from tissue; host or cells: pooled human liver microsomes
T3 sequence (P08684 whole entry): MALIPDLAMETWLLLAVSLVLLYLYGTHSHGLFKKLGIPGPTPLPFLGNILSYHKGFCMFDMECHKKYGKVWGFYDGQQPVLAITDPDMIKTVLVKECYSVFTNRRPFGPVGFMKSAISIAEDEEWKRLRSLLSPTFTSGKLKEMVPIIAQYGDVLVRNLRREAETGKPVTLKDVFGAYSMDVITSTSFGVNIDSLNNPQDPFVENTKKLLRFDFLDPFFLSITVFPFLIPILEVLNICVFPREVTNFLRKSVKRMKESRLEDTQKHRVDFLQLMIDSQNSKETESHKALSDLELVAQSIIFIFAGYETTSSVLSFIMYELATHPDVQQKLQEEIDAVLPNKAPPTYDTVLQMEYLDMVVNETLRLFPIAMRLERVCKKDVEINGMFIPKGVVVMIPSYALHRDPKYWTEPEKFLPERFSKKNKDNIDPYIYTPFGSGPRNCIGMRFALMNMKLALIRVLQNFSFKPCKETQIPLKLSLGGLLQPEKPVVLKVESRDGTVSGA
Protocol: as §1, §2, §3, §4

[1] = test system: Salmonella typhimurium TA98 strain, TA100 strain; format: cell-based; details: Salmonella typhimurium TA98, TA100, non-metabolism and metabolism activating condition
Protocol: The mutagenicity of the compound of the present invention was assayed.
20 μL of freezing-stored rat typhoid bacillus (Salmonella typhimurium TA98 strain, TA100 strain) was inoculated on 10 mL of a liquid nutrient medium (2.5% Oxoid nutrient broth No. 2), and this was cultured before shaking at 37° C. for 10 hours. 9 mL of a bacterial solution of the TA98 strain was centrifuged (2000×g, 10 minutes) to remove a culturing solution. The bacteria was suspended in F buffer (K2HPO4: 3.5 g/L, KH2PO4: 1 g/L, (NH4)2SO4: 1 g/L, trisodium citrate dehydrate: 0.25 g/L, MgSO4.7H2O: 0.1 g/L), and the suspension was added to 110 mL of an Exposure medium (Micro F buffer containing Biotin: 8 μg/mL, histidine: 0.2 μg/mL, glucose: 8 mg/mL). The TA100 strain was added to 120 mL of the Exposure medium per 3.16 mL of the bacterial solution to prepare a test bacterial solution. […] of a test substance DMSO solution (several stage dilution from maximum dose 50 mg/mL at 2- to 3-fold ratio), DMSO as a negative control, 50 μg/mL of 4-nitroquinoline-1-oxide DMSO solution for the TA98 strain, 0.25 μg/mL of 2-(2-furyl)-3-(5-nitro-2-furyl)acrylamide DMSO solution for the TA100 strain each under the non-metabolism activating condition, 40 μg/mL of 2-aminoanthracene DMSO solution for the TA98 strain, 20 μg/mL of 2-aminoanthracene DMSO solution for the TA100 strain each under the metabolism activating condition all as a positive control, and 588 μL of the test bacterial solution (a mixed solution of 498 μL of the test bacterial solution and 90 μL of S9 mix under the metabolism activating condition) were mixed, and this was shaking-cultured at 37° C. for 90 minutes. […] Since a well containing a bacterium which has obtained the proliferation ability by mutation of an amino acid (histidine) synthesizing enzyme gene turns from purple to yellow due to a pH change, the bacterium proliferation well which has turned to yellow in 48 wells per dose is counted, and was assessed by comparing with a negative control group. […]

Question: For `CC(=O)Nc1c(C)c(C(OC(C)(C)C)C(=O)O)c(-c2ccc(C)c(C)c2)c(C)c1-c1ccc(C)c(C)c1` (stereo not shown) [Compound I-6], which IC50 at 15 min (CYP1A2) is on record?
Answer: ≥ 20 µM

Question: What about the IC50 at 15 min (CYP2C19) of the same molecule?
Answer: ≥ 20 µM

Question: And the IC50 at 15 min (CYP3A4)?
Answer: ≥ 20 µM

Question: And the mutagenicity [1]?
Answer: negative
